Source: patent publication US20120165319A1, “INHIBITORS OF INTERLEUKIN-1 BETA CONVERTING ENZYME” (VERTEX PHARMACEUTICALS INCORPORATED, priority 1995, published 2012)
Where a name gives a salt, the structure may show the parent alone.

How the values were obtained:
ICE = target: T1, ICE (Homo sapiens, UniProt P29466); assay: Enzyme assay with UV-visible substrate (visible ICE assay, Succinyl-Tyr-Val-Ala-Asp-pNitroanilide); type: biochemical
T1 sequence (P29466 120-297 limits assumed): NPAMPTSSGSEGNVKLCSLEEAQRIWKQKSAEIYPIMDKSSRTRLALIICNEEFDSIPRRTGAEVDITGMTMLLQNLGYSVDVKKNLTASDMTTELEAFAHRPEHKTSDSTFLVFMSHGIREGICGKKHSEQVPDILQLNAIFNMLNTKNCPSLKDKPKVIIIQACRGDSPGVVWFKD
T1 sequence (P29466 317-404 limits assumed): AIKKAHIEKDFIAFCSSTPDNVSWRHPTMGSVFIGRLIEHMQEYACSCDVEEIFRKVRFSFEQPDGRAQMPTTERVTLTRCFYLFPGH
Method: 1. Enzyme Assay with Uv-Visible Substrate
This assay is run using an Succinyl-Tyr-Val-Ala-Asp-pNitroanilide substrate. Synthesis of analogous substrates is described by L. A. Reiter (Int. J. Peptide Protein Res. 12, 87-96 (1994)). The assay mixture contains:
The visible ICE assay is run in a 96-well microtiter plate. Buffer, ICE and DMSO (if inhibitor is present) are added to the wells in the order listed. The components are left to incubate at room temperature for 15 minutes starting at the time that all components are present in all wells. The microtiter plate reader is set to incubate at 37° C. After the 15 minute incubation, substrate is added directly to the wells and the reaction is monitored by following the release of the chromophore (pNA) at 405-603 nm at 37° C. for 20 minutes. A linear fit of the data is performed and the rate is calculated in mOD/min. DMSO is only present during experiments involving inhibitors, buffer is used to make up the volume to 100 μl in the other experiments.
For determination of enzyme inhibition constants (Ki) or the mode of inhibition (competitive, uncompetitive or noncompetitive), the rate data determined in the enzyme assays at varying inhibitor concentrations are computer-fit to standard enzyme kinetic equations (see I. H. Segel, Enzyme Kinetics, Wiley-Interscience, 1975).

[1] = tested on: IL-1β, human peripheral blood mononuclear cells (PBMC); assay: PBMC cell assay: IL-1β assay with human PBMC or enriched adherent mononuclear cells, LPS-stimulated; type: cell-based
Description: IL-1β Assay with a Mixed Population of Human Peripheral Blood Mononuclear Cells (PBMC) or Enriched Adherent Mononuclear Cells
Processing of pre-IL-1β by ICE can be measured in cell culture using a variety of cell sources. Human PBMC obtained from healthy donors provides a mixed population of lymphocyte subtypes and mononuclear cells that produce a spectrum of interleukins and cytokines in response to many classes of physiological stimulators. Adherent mononuclear cells from PBMC provides an enriched source of normal monocytes for selective studies of cytokine production by activated cells.
An initial dilution series of test compound in DMSO or ethanol is prepared, with a subsequent dilution into RPMI-10% FBS media (containing 2 mM L-glutamine, 10 mM HEPES, 50 U and 50 ug/ml pen/strep) respectively to yield drugs at 4× the final test concentration containing 0.4% DMSO or 0.4% ethanol. The final concentration of DMSO is 0.1% for all drug dilutions. A concentration titration which brackets the apparent Ki for a test compound determined in an ICE inhibition assay is generally used for the primary compound screen.
Generally 5-6 compound dilutions are tested and the cellular component of the assay is performed in duplicate, with duplicate ELISA determinations on each cell culture supernatant.
PBMC Isolation and IL-1 Assay:
Buffy coat cells isolated from one pint human blood (yielding 40-45 ml final volume plasma plus cells) are diluted with media to 80 ml and LeukoPREP separation tubes (Becton Dickinson) are each overlaid with 10 ml of cell suspension. After 15 min centrifugation at 1500-1800×g, the plasma/media layer is aspirated and then the mononuclear cell layer is collected with a Pasteur pipette and transferred to a 15 ml conical centrifuge tube (Corning). Media is added to bring the volume to 15 ml, gently mix the cells by inversion and centrifuge at 300×g for 15 min. Resuspend the PBMC pellet in a small volume of media, count cells and adjust to 6×10^6 cells/ml.
For the cellular assay, 1.0 ml of the cell suspension is added to each well of a 24-well flat bottom tissue culture plate (Corning), 0.5 ml test compound dilution and 0.5 ml LPS solution (Sigma #L-3012; 20 ng/ml solution prepared in complete RPMI media; final LPS concentration 5 ng/ml). The 0.5 ml additions of test compound and LPS are usually sufficient to mix the contents of the wells. Three control mixtures are run per experiment, with either LPS alone, solvent vehicle control, and/or additional media to adjust the final culture volume to 2.0 ml. The cell cultures are incubated for 16-18 hr at 37° C. in the presence of 5% CO2.
At the end of the incubation period, cells are harvested and transferred to 15 ml conical centrifuge tubes. After centrifugation for 10 min at 200×g, supernatants are harvested and transferred to 1.5 ml Eppendorf tubes. It may be noted that the cell pellet may be utilized for a biochemical evaluation of pre-IL-1β and/or mature IL-1β content in cytosol extracts by western blotting or ELISA with pre-IL-1β specific antisera.
Isolation of Adherent Mononuclear Cells:
PBMC are isolated and prepared as described above. Media (1.0 ml) is first added to wells followed by 0.5 ml of the PBMC suspension. After a one hour incubation, plates are gently shaken and nonadherent cells aspirated from each well. Wells are then gently washed three times with 1.0 ml of media and final resuspended in 1.0 ml media. The enrichment for adherent cells generally yields 2.5−3.0×10^5 cells per well. The addition of test compounds, LPS, cell incubation conditions and processing of supernatants proceeds as described above.
We have used Quantikine kits (R&D Systems) for measurement of mature IL-1β. Assays are performed according to the manufacturer's directions. Mature IL-1β levels of about 1-3 ng/ml in both PBMC and adherent mononuclear cell positive controls are observed. […]

[2] = Homo sapiens, PBMC, * = values obtained upon reassay
[3] = * = values obtained upon reassay

Structure (SMILES) | Ki (ICE; Table 5) [nM] | IC50 [1, 2] [nM] | further results
CNC(=O)N[C@H]1CCC(=O)N2CCC[C@@H](C(=O)N[C@H](C=O)CC(=O)O)N2C1=O [Compound 420] | 1200 | 8000 | IC50 [1, 3]: > 8000 nM
C[C@H]1CC(=O)N2CCC[C@@H](C(=O)N[C@H](C=O)CC(=O)O)N2C(=O)[C@H]1NC(=O)c1ccccc1 [Compound 257, [3S(1S,8S,9S)]3-(9-benzoylamino-6,10-dioxo-8-methyl-1,2,3,4,7,8,9,10-octahydro-6H-pyridazino-[1,2-a][1,2]diazepine-1-carboxamido)-4-oxobutanoic acid] | 13 | 11000 | IC50 [1, 3]: 6600 nM
CNCC(=O)N1C[C@H](NC(=O)c2cccc3ccccc23)C(=O)N(CC(=O)N[C@H](C=O)CC(=O)O)c2ccccc21 [Compound 650, (3S)-3-[(3S)-2-Oxo-3-(1-naphthoyl)amino-5-(2-methylamino)acetyl-2,3,4,5-tetrahydro-1H-1,5-benzodiazepine-1-acetylamino]-4-oxo-butyric acid] |  |  | Ki (ICE; Table 17): 550 nM; IC50 ([1]; Homo sapiens, PBMC, Table 17): 4000 nM
COC(=O)N[C@H]1CCC(=O)N2CCC[C@@H](C(=O)N[C@H](C=O)CC(=O)O)N2C1=O [Compound 419] | 280 | > 8000 | 
CS(=O)(=O)N[C@H]1CCC(=O)N2CCC[C@@H](C(=O)N[C@@H](CC(=O)O)C(=O)CSc3nnnn3-c3ccccc3)N2C1=O [Compound 280b, [3S(1S,9S)]3-(6,10-Dioxo-9-methanesulphonamido-1,2,3,4,7,8,9,10-octahydro-6H-pyridazino[1,2-a][1,2]diazepine-1-carboxamido)-4-oxo-5(1-phenyl-1H-tetrazole-5-thio)pentanoic acid] |  |  | IC50 ([1]; Table 17): 13000 nM
O=C[C@H](CC(=O)O)NC(=O)[C@@H]1CCCN2C(=O)CC[C@H](NC(=O)C3CCCCC3)C(=O)N12 [Compound 426] | 90 | 4500 | IC50 [1, 3]: 2500 nM
O=C[C@H](CC(=O)O)NC(=O)[C@@H]1CCCN2C(=O)CC[C@H](NC(=O)c3ccnc4ccccc34)C(=O)N12 [Compound 435] | 8 | 4400 | 
CS(=O)(=O)N[C@H]1CCC(=O)N2CCC[C@@H](C(=O)N[C@@H](CC(=O)O)C(=O)c3ncc(-c4c(Cl)cccc4Cl)o3)N2C1=O [Compound 220b, [3S(1S,9S)]-4-[5-(2,6-Dichlorophenyl)oxazol-2-yl]-3-(6,10-dioxo-9-methylsulphonylamino-1,2,3,4,7,8,9,10-octahydro-6H-pyridazino[1,2-a][1,2]diazepine-1-carboxamido)-4-oxobutanoic acid] | 600 | 2120 | 
CS(=O)(=O)N[C@H]1CCC(=O)N2CCC[C@@H](C(=O)N[C@@H](CC(=O)O)C(=O)COC(=O)c3cccc(Oc4ccccc4)c3)N2C1=O [Compound 505d, [3S(1S,9S)]3-[6,10-Dioxo-9-(methanesulphonylamino)-1,2,3,4,7,8,9,10-octahydro-6H-pyridazino[1,2-a][1,2]diazepine-1-carboxamido]-4-oxo-5-(3-phenoxybenzoyloxy)pentanoic acid] |  |  | IC50 ([1]; Table 17): > 20000 nM
CS(=O)(=O)N[C@H]1CCC(=O)N2CCC[C@@H](C(=O)N[C@@H](CC(=O)O)C(=O)COc3nc4ccccn4c(=O)c3Cl)N2C1=O [Compound 505f, [3S(1S,9S)]5-(3-Chloro-2-oxy-4H-pyrido[1,2-a]pyrimidin-4-one)-3-[6,10-dioxo-9-(methylsulphonyl)amino-1,2,3,4,7,8,9,10-octahydro-6H-pyridazino[1,2-a][1,2]diazepine-1-carboxamido]-4-oxopentanoic acid] |  |  | IC50 ([1]; Table 17): 550 nM
CS(=O)(=O)N[C@H]1CCC(=O)N2CCC[C@@H](C(=O)N[C@@H](CC(=O)O)C(=O)COC(=O)c3ccccc3Oc3ccccc3)N2C1=O [Compound 505c, [3S(1S,9S)]3-[6,10-Dioxo-9-(methanesulphonylamino)-1,2,3,4,7,8,9,10-octahydro-6H-pyridazino[1,2-a][1,2]diazepine-1-carboxamido]-4-oxo-5-(2-phenoxybenzoyloxy)pentanoic acid] |  |  | IC50 ([1]; Table 17): 1500 nM

Continued, in another order:

Ki (ICE; Table 5) [nM] | Structure (SMILES) | IC50 [1, 2] [nM] | further results
150 | O=C[C@H](CC(=O)O)NC(=O)CN1C(=O)[C@@H](NC(=O)c2ccccc2)CN(C(=O)Cc2ccncc2)c2ccccc21 [Compound 605s, (3S)-3-[(3S)-2-Oxo-3-benzoylamino-5-(4-pyridylacetyl)-2,3,4,5-tetrahydro-1H-1,5-benzodiazepin-1-acetylamino]-4-oxo-butyric acid] | 6000 | 
1100 | O=CC(CC(=O)O)NC(=O)CN1C(=O)[C@@H](NCc2ccccc2)CN(C(=O)CCc2ccccc2)c2ccccc21 (stereo partly drawn) [Compound 605v, (3S)3-[(3S)2-Oxo-3-benzylamino-5-(3-phenylpropionyl)-2,3,4,5-tetrahydro-1H-1,5-benzodiazepin-1-acetylamino]-4-oxo-butyric acid trifluoroacetic acid salt] | > 30000 | 
4 | COc1cccc(C(=O)N[C@H]2CCC(=O)N3CCC[C@@H](C(=O)N[C@H](C=O)CC(=O)O)N3C2=O)c1 [Compound 451] | 1800 | 
680 | CC(=O)C(=O)N1C[C@H](NC(=O)c2ccccc2)C(=O)N(CC(=O)N[C@H](C=O)CC(=O)O)c2ccccc21 [Compound 605i, (3S)-3-[(3S)-2-Oxo-3-benzoylamino-5-acetylcarbonyl-2,3,4,5-tetrahydro-1H-1,5-benzodiazepin-1-acetylamino]-4-oxo-butyric acid] | > 20000 | 
5 | O=C[C@H](CC(=O)O)NC(=O)[C@@H]1CCCN2C(=O)CC[C@H](NC(=O)c3ccc(F)c(Cl)c3)C(=O)N12 [Compound 459] | 1800 | 
11 | O=C[C@H](CC(=O)O)NC(=O)[C@@H]1CCCN2C(=O)CC[C@H](NC(=O)c3cc4ccccc4o3)C(=O)N12 [Compound 467] | 1900 | 
7.5 | O=C[C@H](CC(=O)O)NC(=O)[C@@H]1CCCN2C(=O)CC[C@H](NC(=O)c3cnc4ccccc4c3)C(=O)N12 [Compound 436] | 2700 | 
2.5 | O=C[C@H](CC(=O)O)NC(=O)[C@@H]1CCCN2C(=O)CC[C@H](NC(=O)c3ccc(Cl)c(Cl)c3)C(=O)N12 [Compound 464] | 1000 | 
